Experiments:
[1] = Drug release of impregnated multifilament in 0.01M PBS; format: physicochemical; details: release from multifilament impregnated with 1000 ppm solution; 0.01M PBS pH 7.4, 37, examined 0-100 hours
Description: In order to examine the […] drug release of each of the multifilament samples impregnated with CAPE and GSE for 440 min and pinocembrin for 720 min in Example 3, the following test was performed. As a solvent for use in this release test, 0.01M PBS (by phosphate buffer calculator, monobasic monohydrate: 1.1832 g, and dibasic ACS reagent: 8.1572 g) was prepared and adjusted to a pH of 7.4. After standard curves of FIGS. 5A, 5B and 5C for the grapefruit seed extracts and CAPE and pinocembrin (the active components of propolis) were plotted, and then tests for the materials were performed at the respective concentrations. The standard curves for the functional materials were obtained by measuring the absorbance using JASCO V-550 UV-Vis Spectrometer (Wavelength Range: 200-900 nm; Bandwidth Selectable: 0.5 nm; Scanning Speed: 400 nm/min; Data Pitch: 1 nm). The standard curve equations shown in FIGS. 5A (CAPE), 5B (Pinocembrin) and 5C (grapefruit seed extract) are as follows: y=0.126x+0.022 CAPE (1) y=0.051x+0.021 Pinocembrin (2) y=0.002x−0.035 Grapefruit seed extract (3) wherein x is the concentration of each functional material, and y is the absorbance of each functional material. […]

[2] = Degradation behavior of PGLA multifilament in PBS solution; format: physicochemical
Source text: FIG. 9 is a photograph showing the results of observing the degradation behavior of 0.1 g of the PGLA multifilament in PBS solution (pH7.4; similar to the human body) for 0 day, 10 days and 2 months. […] Also, it can be seen that the grapefruit seed extract and CAPE or pinocembrin which is the active component of propolis have no effect on the degradation of the multifilament.

[3] = test system: Escherichia coli DH 5α (ATCC 25922); experiment: Antibacterial activity of impregnated multifilament, agar diffusion; format: cell-based; details: contained in multifilament, treatment concentration 1000 ppm, 37.1° C., 24 hours, FIG. 8
Description: (§1) The antibacterial activity of the multifilament of Example containing the grapefruit seed extract and the active components (CAPE and pinocembrin) of propolis was tested. In the test, the cells of bacterial strains were grown in LB medium (peptone 10 g) by agar diffusion, and the growth of the bacterial strains was examined by UV-Vis spectroscopy. As the test strains, Staphylococcus aureus (ATCC 6538) and Escherichia coli DH 5α (ATCC 25922) were used. The bacterial cells were cultured at 37.1° C. for 24 hours, and then changes in the bacterial strains were measured. FIG. 8 is a set of photographs showing a comparison of antibacterial activity between a multifilament containing the grapefruit seed extract and a multifilament containing the active component (CAPE) of propolis. […] In FIG. 8, 1: a control group, 2 to 6: samples impregnated with a solution of CAPE and the grapefruit seed extract; a: a sample treated with Staphylococcus aureus; b: a sample treated with Escherichia coli DH 5α. In the photograph of FIG. 8, the treatment concentration is 1000 ppm. […] Although a lower concentration of the antibacterial material is contained in the multifilament, it is considered that the test should be carried out at 1000 ppm, because the concentration of the antibacterial material in the multifilament will be excessively low when the test is carried out at a lower concentration. […]

[4] = test system: Staphylococcus aureus (ATCC 6538); experiment: as above; format: cell-based; details: contained in multifilament, treatment concentration 1000 ppm, 37.1° C., 24 hours, FIG. 8
Description: as §1

O=C1CC(c2ccccc2)Oc2cc(O)cc(O)c21 (stereo not shown) [pinocembrin]
time at which drug release behavior was completed [1]: ≤ 60 h
effect on the degradation of the multifilament ([2]; PBS solution pH7.4, 0 day, 10 days and 2 months, FIG. 9): no effect

poly(glycolide-co-L-lactide) [PGLA multifilament]
degradation of the multifilament ([2]; pH 7.4): significantly rapid

O=C(/C=C/c1ccc(O)c(O)c1)OCCc1ccccc1 [CAPE, caffeic acid phenethyl ester]
time at which drug release behavior was completed [1]: ≤ 64 h
antibacterial activity [3]: showed antibacterial activity
antibacterial activity [4]: showed antibacterial activity
effect on the degradation of the multifilament ([2]; pH 7.4): no effect

Source: patent US9044526B2, “Medical product containing active component of propolis or grapefruit seed extract and manufacturing method thereof” (Korea Institute of Ceramic Engineering and Technology, priority 2011, dated 2015)
